According to PMC7651685 (Psychopharmacology, 2020):
Several values for one entry are separate records, joined by “and”; a condition that tells them apart may be missing. Equal entries are not always repeated. Structures can show the parent of a compound that is named as a salt.

Legend:
[1] = test system: dopamine transporters (DAT); experiment: [18F]-FE-PE2I PET displacement: DAT occupancy, displacement half-time and brain entry (modified GRTM); format: in vivo, rhesus macaques (Macaca mulatta); details: for Brain entry time, Caudate / Brain entry time, Putamen / Brain entry time, Mean: modified GRTM; for Brain entry time, Mean: mean over animals and regions; for Percent maximum displacement (= % DAT occupancy), Caudate\Putamen mean, Mean ± SD: group mean of four animals; for Percent maximum displacement (= % DAT occupancy), Caudate\putamen mean, Mean: mean of two animals
Protocol: Two male and two female rhesus macaques (Macaca mulatta) housed at the Yale University School of Medicine (New Haven, CT) were used for the [^18F]-FE-PE2I imaging. In all experiments, [^18F]-FE-PE2I was administered as a bolus plus constant infusion (Kbol from 168 to 216 min; total radioactivity = 162 ± 27 MBq) over 4 h to establish steady-state DAT binding. Bolus/infusion delivery parameters (i.e., Kbol) for [^18F]-FE-PE2I for each monkey were determined from baseline [^18F]-FE-PE2I scans that utilized single bolus intravenous injections of the radiotracer (Carson et al. [1993]). Identical procedures were used for list-mode image acquisition with a Siemens Focus 220 PET scanner for all DAT brain studies. The dynamic PET imaging series were reconstructed into 57 frames (6 × 0.5 min, 3 × 1 min, 2 × 2 min, and 46 × 5 min) using filtered back projection with standard corrections for random, scatter, and attenuation provided by the camera manufacturer.
At 2 h into the [^18F]-FE-PE2I scan, under tracer steady-state conditions, DAS or MPH was administered i.v. either as a 3 min i.v. bolus or as a bolus plus 4-step infusion over 40 min (four 10-min steps). The drug bolus experiments were carried out in all four rhesus macaques, each receiving DAS at 0.2 and 0.1 mg/kg and MPH at 0.5 and 0.1 mg/kg. The drug bolus plus 4-step infusion experiments were conducted in two rhesus macaques, each receiving DAS bolus injection over 30 s followed by a 4-step infusion over 40 min (four 10-min steps, 1.55, 1.45, 1.4, 1.3 mg) and MPH bolus injection over 30 s followed by an infusion over 40 min (four 10-min steps, 1.15, 1, 0.85, 0.75 mg).
Reconstructed dynamic PET images were transferred and analyzed using the image processing software package PMOD 3.6 (PMOD Technologies, Zurich, Switzerland). The PET images were normalized to an MR rhesus brain template (Rohlfing et al. [2012]) and a region of interest (ROI) atlas including the caudate nucleus, putamen, and cerebellar cortex was applied. Average activity concentration (kBq/cc) within each ROI was determined and time-activity curves (TAC) representing the regional brain activity concentration over time were generated. TACs were additionally expressed in SUV units (g/ml) by normalizing by the weight of the animal and the injected dose.
Reductions in radiotracer binding following administration of DAS or MPH were used to determine DAT occupancy while reductions in radiotracer binding over time were used to estimate brain entry and binding rates. The displacement half-time is defined as the time it takes from drug administration until 50% of maximal tracer displacement is achieved. Tracer displacement half-times were estimated using average uptake levels from the baseline and displacement experiments and expressing the change in standardized uptake values (SUV) units as a fraction (normalized) of the observed SUV difference at the end of the experiment. Normalized SUV values for caudate and putamen respectively were plotted against time for each dose of DAS and MPH respectively to estimate the drug displacement half-time.
Brain entry of DAS and MPH was determined by analyzing the [^18F]-FE-PE2I TACs in the putamen and caudate nucleus using a kinetic model using the cerebellar cortex as a reference region. The kinetic model is based on the generalized reference tissue model (GRTM; Votaw et al. [2002]) and a recent report of brain entry and binding rates measurement (Nicolas et al. [2016]). […] The half-life of the brain entry and binding of the drug was estimated as ln(2)/α. The kinetic model employs 5 parameters: R1, BPND, r, α, and k2′ where R1 is the relative tracer influx rate constant and k2′ is the reference tissue tracer efflux rate constant. The maximum occupancy was constrained to the measured displacement, while k2′ and α were constrained to a common value across the putamen and caudate nucleus.

[2] = test system: dopamine efflux in the nucleus accumbens; parameters: method as in Rowley et al. [2017]; details: rat nucleus accumbens microdialysis; ref Rowley et al. [2017]; cited from earlier work
DAT [3] = test system: DAT; parameters: method as in Hasenhuetl et al. [2015]; details: ref Hasenhuetl et al. [2015]; cited from earlier work
[4] = orally administered, recreational stimulant users; ref Koblan et al. [2016]; cited from earlier work
[5] = test system: solute carrier (SLC) and organic anion transporters (OAT); details: LLC-PK1 cell monolayers and Xenopus Laevis Oocytes; Data-on-file; ref Sunovion Reports #531, 544, 575; cited from earlier work
DAT [6] = details: ref Rowley et al. [2017]; read-out: Affinity for DAT, IC50; cited from earlier work
P-gp = details: LLC-PK1 cell monolayers and Xenopus Laevis Oocytes; Data-on-file; ref Sunovion Reports #531, 544, 575; cited from earlier work
[7] = rodent, 14C-DAS; Data-on-file; ref Sunovion report 360-365; cited from earlier work
[8] = test system: efflux transporters of the ATP binding cassette (ABC) superfamily; details: LLC-PK1 cell monolayers and Xenopus Laevis Oocytes; Data-on-file; ref Sunovion Reports #531, 544, 575; cited from earlier work
[9] = 0.1 mg/kg MPH, bolus administration, individual animals A-D
[10] = 0.5 mg/kg MPH, bolus administration, individual animals A-D
[11] = 4.3 mg MPH, bolus + 4 step infusion, individual animals A, B
[12] = MPH 0.1 mg/kg i.v. 3 min bolus, individual animals A-D
[13] = MPH 0.5 mg/kg i.v. 3 min bolus, individual animals A-D
[14] = MPH 4.3 mg, bolus plus 4-step infusion over 40 min, individual animals A, B
[15] = 0.1 mg/kg DAS, bolus administration, individual animals A-D
[16] = 0.2 mg/kg DAS, bolus administration, individual animals A-D
[17] = 6 mg DAS, bolus + 4 step infusion, individual animals A, B
[18] = DAS 0.1 mg/kg i.v. 3 min bolus, individual animals A-D
[19] = DAS 0.2 mg/kg i.v. 3 min bolus, individual animals A-D
[20] = DAS 6.0 mg, bolus plus 4-step infusion over 40 min, individual animals A, B

COC(=O)C(c1ccccc1)C1CCCCN1 (racemic) [MPH, (±)-Methyl α-Phenyl-α-(2-piperidyl)acetate hydrochloride, reference compound]
Averaged displacement half-time (between caudate and putamen) ([1]; 0.1 mg/kg MPH i.v. bolus): 15.5 min
Brain entry time, Caudate [1, 9]: 2.57 min and 3.41 min and 2.60 min and 3.44 min
Brain entry time, Putamen [1, 9]: 2.34 min and 2.59 min and 2.91 min and 4.28 min
Brain entry time, Mean ([1]; 0.1 mg/kg MPH, bolus administration): 3 min and 3.02 ± 0.65 min and 3.02 min
Averaged displacement half-time (between caudate and putamen) ([1]; 0.5 mg/kg MPH i.v. bolus): 11.5 min
Brain entry time, Caudate [1, 10]: 2.25 min and 2.19 min and 1.78 min and 2.65 min
Brain entry time, Putamen [1, 10]: 2.07 min and 2.08 min and 2.09 min and 2.00 min
Brain entry time, Mean ([1]; 0.5 mg/kg MPH, bolus administration): 2 min and 2.14 ± 0.25 min and 2.14 min
Brain entry time, Caudate [1, 11]: 7.15 min and 6.48 min
Brain entry time, Putamen [1, 11]: 5.77 min and 7.69 min
Brain entry time, Mean ([1]; 4.3 mg MPH, bolus + 4 step infusion): 6.77 min
Percent maximum displacement (= % DAT occupancy), Caudate\Putamen mean, Mean ± SD ([1]; MPH 0.1 mg/kg i.v. 3 min bolus): 69% and 68.60 ± 5.21%
Percent maximum displacement (= % DAT occupancy), Caudate nucleus [1, 12]: 72.4% and 72.7% and 64.2% and 60.4%
Percent maximum displacement (= % DAT occupancy), Caudate\Putamen mean [1, 12]: 73.1% and 63.6% and 64.6%
Percent maximum displacement (= % DAT occupancy), Putamen [1, 12]: 73.7% and 73.5% and 62.9% and 68.8%
Percent maximum displacement (= % DAT occupancy), Caudate\Putamen mean, Mean ± SD ([1]; MPH 0.5 mg/kg i.v. 3 min bolus): 88% and 88.20 ± 2.62%
Percent maximum displacement (= % DAT occupancy), Caudate nucleus [1, 13]: 91.7% and 87.9% and 83.9% and 87.0%
Percent maximum displacement (= % DAT occupancy), Caudate\Putamen mean [1, 13]: 91.3% and 88.5% and 84.9% and 88.1%
Percent maximum displacement (= % DAT occupancy), Putamen [1, 13]: 90.9% and 89.0% and 85.9% and 89.1%
Percent maximum displacement (= % DAT occupancy), Caudate nucleus [1, 14]: 87.9% and 90.2%
Percent maximum displacement (= % DAT occupancy), Caudate\Putamen mean [1, 14]: 88.9% and 89.5%
Percent maximum displacement (= % DAT occupancy), Putamen [1, 14]: 89.9% and 88.9%
Percent maximum displacement (= % DAT occupancy), Caudate\putamen mean, Mean ([1]; MPH 4.3 mg, bolus plus 4-step infusion over 40 min): 89.2%
Brain entry faster than DAS ([1]; bolus + 4 step infusion, matched delivery, MPH relative to DAS): ~3 fold
Displacement of [18F]-FE-PE2I / DAT occupancy faster than DAS (displacement half-times) ([1]; i.v. bolus, MPH relative to DAS): approximately 3 fold
Time of peak of dopamine efflux [2]: 40 min
Association rate (kon) to DAT (DAT [3]): 830000 M⁻¹ s⁻¹

N[C@@H]1CC[C@@H](c2ccc(Cl)c(Cl)c2)c2ccccc21 [DAS, (1R,4S)-4-(3,4-dichlorophenyl)-1,2,3,4-tetra-hydronaphthalen-1-amine]
Potential for abuse [4]: low potential for abuse compared with MPH
Active uptake by SLC and OAT transporters [5]: not actively taken up
Averaged displacement half-time (between caudate and putamen) ([1]; 0.1 mg/kg DAS i.v. bolus): 40 min
Brain entry time, Caudate [1, 15]: 18.91 min and 27.13 min and 25.06 min and 19.23 min
Brain entry time, Putamen [1, 15]: 15.35 min and 18.83 min and 33.22 min and 19.5 min
Brain entry time, Mean ([1]; 0.1 mg/kg DAS, bolus administration): 22 min and 22.15 ± 5.85 min and 22.15 min
Averaged displacement half-time (between caudate and putamen) ([1]; 0.2 mg/kg DAS i.v. bolus): 31 min
Brain entry time, Caudate [1, 16]: 19.90 min and 19.65 min and 12.09 min and 13.12 min
Brain entry time, Putamen [1, 16]: 11.47 min and 17.71 min and 12.60 min and 16.03 min
Brain entry time, Mean ([1]; 0.2 mg/kg DAS, bolus administration): 15 min and 15.32 ± 3.45 min and 15.32 min
Brain entry time, Caudate [1, 17]: 16.07 min and 16.34 min
Brain entry time, Putamen [1, 17]: 16.33 min and 18.57 min
Brain entry time, Mean ([1]; 6 mg DAS, bolus + 4 step infusion): 16.83 min
Percent maximum displacement (= % DAT occupancy), Caudate\Putamen mean, Mean ± SD ([1]; DAS 0.1 mg/kg i.v. 3 min bolus): 54% and 54.48 ± 10.04%
Percent maximum displacement (= % DAT occupancy), Caudate nucleus [1, 18]: 56.1% and 49.9% and 40.8% and 53.4%
Percent maximum displacement (= % DAT occupancy), Caudate\Putamen mean [1, 18]: 61.2% and 52.5% and 41.1% and 63.1%
Percent maximum displacement (= % DAT occupancy), Putamen [1, 18]: 66.3% and 55.0% and 41.5% and 72.8%
Percent maximum displacement (= % DAT occupancy), Caudate\Putamen mean, Mean ± SD ([1]; DAS 0.2 mg/kg i.v. 3 min bolus): 68% and 68.13 ± 10.30%
Percent maximum displacement (= % DAT occupancy), Caudate nucleus [1, 19]: 64.8% and 67.9% and 70.1% and 50.7%
Percent maximum displacement (= % DAT occupancy), Caudate\Putamen mean [1, 19]: 76% and 72.5% and 71% and 53%
Percent maximum displacement (= % DAT occupancy), Putamen [1, 19]: 87.3% and 77.1% and 72% and 55.3%
Percent maximum displacement (= % DAT occupancy), Caudate nucleus [1, 20]: 83.7% and 82.0%
Percent maximum displacement (= % DAT occupancy), Caudate\Putamen mean [1, 20]: 81.6% and 85.6% and 81.7%
Percent maximum displacement (= % DAT occupancy), Putamen [1, 20]: 87.4% and 81.3%
Percent maximum displacement (= % DAT occupancy), Caudate\putamen mean, Mean ([1]; DAS 6.0 mg, bolus plus 4-step infusion over 40 min): 83.6%
Brain entry / DAT occupancy rate slower than MPH ([1]; i.v. administration, DAS relative to MPH): ~ 7 fold and 5-11 fold
DAT RO50 from this study ([1]; rhesus monkey, plasma level): 3.5 ng/mL
IC50 (DAT [6]): 3 nM
Time to reach maximum effect on dopamine efflux post-dose [2]: up to 2 h
Substrate for P-gp (P-gp): not a substrate
brain:plasma ratio/partition coefficient (Kp) [7]: 6.2–12.3
Substrate for other efflux transporters of the ABC superfamily [8]: not a substrate
